Results taken from patent publication US20150175599A1, “FAAH Inhibitors” (Ironwood Pharmaceuticals, Inc., priority 2010, published 2015).

Target: T1, hERG channel (Homo sapiens, UniProt Q12809)
T1 construct: expressed in transfected cells; host or cells: CHO (hERG-CHO), under Geneticin selection
Experiment: hERG channel inhibition, automated patch clamp (IonWorks HT, hERG-CHO)
Type: cell-based
Conditions: CHO cells expressing hERG, 600 s incubation; for inhibition at 600 s, 1 µM: 1 μM compound, read-out: hERG Channel Inhibition % (at 1 μM), vehicle-subtracted values; for inhibition at 600 s, 10 µM: 10 μM compound, read-out: hERG Channel Inhibition % (at 10 μM), vehicle-subtracted values
Outline: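 hERG-CHO cells held at 30 °C for 48 h before IonWorks HT patch clamp: from −80 mV to +40 for 2 s, then −50 mV for 2 s tail, repeated three times, before and after 600 s compound exposure. Third-pulse post/pre tail amplitude ratio gave percent inhibition; cells with seal <50 MOhm or tail <250 pA excluded.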

T1 sequence (Q12809 whole entry): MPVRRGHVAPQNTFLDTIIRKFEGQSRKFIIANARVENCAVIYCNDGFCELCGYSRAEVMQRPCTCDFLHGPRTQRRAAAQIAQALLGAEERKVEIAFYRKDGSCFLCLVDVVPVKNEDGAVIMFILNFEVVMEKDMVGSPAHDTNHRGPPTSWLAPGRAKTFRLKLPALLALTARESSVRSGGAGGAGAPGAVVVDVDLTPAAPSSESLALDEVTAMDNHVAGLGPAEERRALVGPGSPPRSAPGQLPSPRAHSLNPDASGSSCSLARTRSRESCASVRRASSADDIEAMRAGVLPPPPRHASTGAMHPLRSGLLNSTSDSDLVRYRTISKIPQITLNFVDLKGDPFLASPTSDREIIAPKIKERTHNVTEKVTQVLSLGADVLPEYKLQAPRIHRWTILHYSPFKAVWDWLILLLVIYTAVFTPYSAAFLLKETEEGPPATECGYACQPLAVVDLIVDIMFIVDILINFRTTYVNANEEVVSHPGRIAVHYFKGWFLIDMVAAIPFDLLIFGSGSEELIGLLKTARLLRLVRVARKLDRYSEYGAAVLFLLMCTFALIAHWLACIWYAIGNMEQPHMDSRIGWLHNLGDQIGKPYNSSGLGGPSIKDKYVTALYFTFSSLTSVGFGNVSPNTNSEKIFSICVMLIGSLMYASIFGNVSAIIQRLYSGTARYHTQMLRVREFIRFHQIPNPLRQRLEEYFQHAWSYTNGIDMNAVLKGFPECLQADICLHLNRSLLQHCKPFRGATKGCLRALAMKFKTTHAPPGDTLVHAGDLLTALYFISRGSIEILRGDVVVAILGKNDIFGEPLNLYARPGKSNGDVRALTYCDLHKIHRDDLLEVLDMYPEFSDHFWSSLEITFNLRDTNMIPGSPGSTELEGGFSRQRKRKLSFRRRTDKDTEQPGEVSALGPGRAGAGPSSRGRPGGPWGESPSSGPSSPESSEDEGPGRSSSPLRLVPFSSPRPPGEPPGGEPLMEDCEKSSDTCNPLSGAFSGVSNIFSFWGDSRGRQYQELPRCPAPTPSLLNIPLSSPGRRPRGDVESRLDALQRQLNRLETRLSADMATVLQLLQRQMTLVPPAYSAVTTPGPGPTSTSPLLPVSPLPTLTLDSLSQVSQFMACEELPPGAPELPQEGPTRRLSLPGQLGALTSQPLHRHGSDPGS

Work on `COc1cc(NC(=O)C(=O)c2c(C)n(Cc3ccc(Cl)cn3)c3cc(F)c(C)cc23)ccn1` [Compound 90, 2-(1-((5-chloropyridin-2-yl)methyl)-6-fluoro-2,5-dimethyl-1H-indol-3-yl)-N-(2-methoxypyridin-4-yl)-2-oxoacetamide] yielded an inhibition at 600 s, 1 µM of under 25% and an inhibition at 600 s, 10 µM of under 25%.
Work on `COc1ccc2c(c1)c(C(=O)C(=O)Nc1ccnc(OC)c1)c(C)n2Cc1cccnc1` [Compound 78, 2-(5-methoxy-2-methyl-1-(pyridin-3-ylmethyl)-1H-indol-3-yl)-N-(2-methoxypyridin-4-yl)-2-oxoacetamide] yielded an inhibition at 600 s, 1 µM of under 25% and an inhibition at 600 s, 10 µM of 25 to 50%.
For `COc1cc(NC(=O)C(=O)c2c(C)n(Cc3ccc(Cl)cc3)c3cccnc23)ccn1` [Compound 3, 2-(1-(4-chlorobenzyl)-2-methyl-1H-pyrrolo[3,2-b]pyridin-3-yl)-N-(2-methoxypyridin-4-yl)-2-oxoacetamide], the inhibition at 600 s, 1 µM was under 25% and the inhibition at 600 s, 10 µM was 25 to 50%.
`COc1ccc2c(c1)c(C(=O)C(=O)Nc1ccnc(OC)c1)c(C)n2Cc1ccc(C)cn1` [Compound 84, 2-(5-methoxy-2-methyl-1-((5-methylpyridin-2-yl)methyl)-1H-indol-3-yl)-N-(2-methoxypyridin-4-yl)-2-oxoacetamide] showed an inhibition at 600 s, 1 µM of under 25% and an inhibition at 600 s, 10 µM of under 25%.
Compound `COc1ccc2c(c1)c(C(=O)C(=O)Nc1ccnc(OC)c1)c(C)n2Cc1ncc(F)cc1F` [Compound 81, 2-(1-((3,5-difluoropyridin-2-yl)methyl)-5-methoxy-2-methyl-1H-indol-3-yl)-N-(2-methoxypyridin-4-yl)-2-oxoacetamide] has an inhibition at 600 s, 1 µM of under 25% and an inhibition at 600 s, 10 µM of under 25%.
For `COc1cc(NC(=O)C(=O)c2c(C)n(Cc3ccc(Cl)cc3)c3cc(F)c(C)cc23)ccn1` [Compound 89, 2-(1-(4-chlorobenzyl)-6-fluoro-2,5-dimethyl-1H-indol-3-yl)-N-(2-methoxypyridin-4-yl)-2-oxoacetamide], the inhibition at 600 s, 1 µM was under 25% and the inhibition at 600 s, 10 µM was under 25%.
Compound `COc1ccc2c(c1)c(C(=O)C(=O)Nc1ccnc(OC)c1)c(C)n2Cc1ncc(Cl)cc1Cl` [Compound 82, 2-(1-((3,5-dichloropyridin-2-yl)methyl)-5-methoxy-2-methyl-1H-indol-3-yl)-N-(2-methoxypyridin-4-yl)-2-oxoacetamide] has an inhibition at 600 s, 1 µM of under 25% and an inhibition at 600 s, 10 µM of under 25%.
Compound `COc1ccc2c(c1)c(C(=O)C(=O)Nc1ccnc(OC)c1)c(C)n2Cc1ncc(Cl)cc1F` [Compound 87, 2-(1-((5-chloro-3-fluoropyridin-2-yl)methyl)-5-methoxy-2-methyl-1H-indol-3-yl)-N-(2-methoxypyridin-4-yl)-2-oxoacetamide] has an inhibition at 600 s, 1 µM of under 25% and an inhibition at 600 s, 10 µM of under 25%.
`COc1cc(NC(=O)C(=O)c2c(C)n(Cc3ccc(Cl)cc3Cl)c3cc(F)c(OC)cc23)ccn1` [Compound 92, 2-(1-(2,4-dichlorobenzyl)-6-fluoro-5-methoxy-2-methyl-1H-indol-3-yl)-N-(2-methoxypyridin-4-yl)-2-oxoacetamide] showed an inhibition at 600 s, 1 µM of under 25% and an inhibition at 600 s, 10 µM of under 25%.
`COc1cc(NC(=O)C(=O)c2c(C)n(Cc3ccc(Cl)cc3)c3cc(OC)c(Cl)cc23)ccn1` [Compound 80, 2-(5-chloro-1-(4-chlorobenzyl)-6-methoxy-2-methyl-1H-indol-3-yl)-N-(2-methoxypyridin-4-yl)-2-oxoacetamide] showed an inhibition at 600 s, 1 µM of under 25% and an inhibition at 600 s, 10 µM of under 25%.
Work on `COc1ccc2c(c1)c(C(=O)C(=O)Nc1ccnc(OC)c1)c(C)n2Cc1ccc(Cl)cn1` [Compound 79, 2-(1-((5-chloropyridin-2-yl)methyl)-5-methoxy-2-methyl-1H-indol-3-yl)-N-(2-methoxypyridin-4-yl)-2-oxoacetamide] yielded an inhibition at 600 s, 1 µM of under 25% and an inhibition at 600 s, 10 µM of under 25%.
With `COc1cc(NC(=O)C(=O)c2c(C)n(Cc3ccc(F)cn3)c3ccc(C)cc23)ccn1` [Compound 85, 2-(1-((5-fluoropyridin-2-yl)methyl)-2,5-dimethyl-1H-indol-3-yl)-N-(2-methoxypyridin-4-yl)-2-oxoacetamide] the inhibition at 600 s, 1 µM was under 25% and the inhibition at 600 s, 10 µM was 25 to 50%.
For `COc1cc(NC(=O)C(=O)c2c(C)n(Cc3ccc(Cl)cc3)c3cc(Cl)c(C)cc23)ccn1` [Compound 93, 2-(6-chloro-1-(4-chlorobenzyl)-2,5-dimethyl-1H-indol-3-yl)-N-(2-methoxypyridin-4-yl)-2-oxoacetamide], the inhibition at 600 s, 1 µM was under 25% and the inhibition at 600 s, 10 µM was under 25%.
`COc1cc(NC(=O)C(=O)c2c(C)n(Cc3ccc(Cl)cn3)c3cc(Cl)c(C)cc23)ccn1` [Compound 94, 2-(6-chloro-1-((5-chloropyridin-2-yl)methyl)-2,5-dimethyl-1H-indol-3-yl)-N-(2-methoxypyridin-4-yl)-2-oxoacetamide] was tested, and the inhibition at 600 s, 1 µM was under 25% and the inhibition at 600 s, 10 µM was under 25%.
